Reference: publication PMC5392334, “Discovery and characterization of a novel irreversible EGFR mutants selective and potent kinase inhibitor CHMFL-EGFR-26 with a distinct binding mode” (Oncotarget, 2017)

Tests used:
[1] = target: T1, SNARK (Homo sapiens, UniProt Q9H093); assay: KinomeScan; format: binding; conditions: read-out: % control
T1 construct: purchased DiscoveRx KINOMEscan

[2] = target: T2, CSNK1G3 (Homo sapiens, UniProt Q9Y6M4); assay: KinomeScan; format: binding; conditions: read-out: % control
T2 construct: purchased DiscoveRx KINOMEscan

[3] = target: T3, PIK3CA(C420R) (Homo sapiens, UniProt P42336, C420R); assay: KinomeScan; format: binding; conditions: read-out: % control
T3 construct: purchased DiscoveRx KINOMEscan

[4] = target: T4, PIK3CA (Homo sapiens, UniProt P42336); assay: KinomeScan; format: binding; conditions: read-out: % control
T4 construct: purchased DiscoveRx KINOMEscan

[5] = target: T5, TAOK3 (Homo sapiens, UniProt Q9H2K8); assay: KinomeScan; format: binding; conditions: read-out: % control
T5 construct: purchased DiscoveRx KINOMEscan

[6] = target: T6, FLT3(D835V) (Homo sapiens, UniProt P36888, D835V); assay: KinomeScan; format: binding; conditions: read-out: % control
T6 construct: purchased DiscoveRx KINOMEscan

[7] = target: T7, CSNK1A1L (Homo sapiens, UniProt Q8N752); assay: KinomeScan; format: binding; conditions: read-out: % control
T7 construct: purchased DiscoveRx KINOMEscan

[8] = target: T8, MAK (Homo sapiens, UniProt P20794); assay: KinomeScan; format: binding; conditions: read-out: % control
T8 construct: purchased DiscoveRx KINOMEscan
T8 sequence (P20794 whole entry): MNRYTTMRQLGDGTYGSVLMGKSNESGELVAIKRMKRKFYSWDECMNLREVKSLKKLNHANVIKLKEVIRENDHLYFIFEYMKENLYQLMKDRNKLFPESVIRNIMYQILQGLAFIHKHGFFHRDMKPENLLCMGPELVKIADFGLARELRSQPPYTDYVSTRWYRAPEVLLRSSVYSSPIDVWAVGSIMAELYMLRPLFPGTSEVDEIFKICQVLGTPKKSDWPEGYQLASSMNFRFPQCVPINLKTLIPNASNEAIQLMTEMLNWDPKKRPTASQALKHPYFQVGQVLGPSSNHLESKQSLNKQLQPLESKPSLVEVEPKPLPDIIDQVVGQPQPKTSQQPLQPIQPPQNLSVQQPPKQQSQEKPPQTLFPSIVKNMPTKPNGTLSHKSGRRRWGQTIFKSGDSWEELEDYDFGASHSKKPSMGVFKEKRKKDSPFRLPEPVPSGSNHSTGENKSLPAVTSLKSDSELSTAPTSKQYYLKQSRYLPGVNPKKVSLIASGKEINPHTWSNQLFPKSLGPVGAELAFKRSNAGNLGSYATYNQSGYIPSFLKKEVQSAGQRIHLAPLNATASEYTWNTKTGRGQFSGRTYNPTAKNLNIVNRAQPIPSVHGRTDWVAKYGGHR

[9] = target: T9, CAMK2A (Homo sapiens, UniProt Q9UQM7); assay: KinomeScan; format: binding; conditions: read-out: % control
T9 construct: purchased DiscoveRx KINOMEscan

[10] = target: T10, PIP5K1C (Homo sapiens, UniProt O60331); assay: KinomeScan; format: binding; conditions: read-out: % control
T10 construct: purchased DiscoveRx KINOMEscan

[11] = target: T11, PIK3CA(H1047L) (Homo sapiens, UniProt P42336, H1047L); assay: KinomeScan; format: binding; conditions: read-out: % control
T11 construct: purchased DiscoveRx KINOMEscan

[12] = target: T12, STK36 (Homo sapiens, UniProt Q9NRP7); assay: KinomeScan; format: binding; conditions: read-out: % control
T12 construct: purchased DiscoveRx KINOMEscan

[13] = tested on: 468 kinases/mutants; assay: KinomeScan selectivity profile (panel); format: binding; conditions: 1μM
From the text: In order to better understand CHMFL-EGFR-26's selectivity, we then tested it in DiscoveRx's KinomeScan™ assay. […] Given the fact that KinomeScan™ is a binding assay and sometimes cannot truly reflect the compound inhibitory activity, we then used Invitrogen SelectScreen® assay to test these potential off-targets (Supplementary Table 2). […] This was not surprising because EGFR, JAK3, HER2, HER4 and TEC family kinases (BTK, BLK and BMX) all share a similar cysteine residue at the identical position analogous to Cys 797 in EGFR in the hinge binding area.

[14] = target: T13, CSNK2A2 (Homo sapiens, UniProt P19784); assay: KinomeScan; format: binding; conditions: read-out: % control
T13 construct: purchased DiscoveRx KINOMEscan
T13 sequence (P19784 whole entry): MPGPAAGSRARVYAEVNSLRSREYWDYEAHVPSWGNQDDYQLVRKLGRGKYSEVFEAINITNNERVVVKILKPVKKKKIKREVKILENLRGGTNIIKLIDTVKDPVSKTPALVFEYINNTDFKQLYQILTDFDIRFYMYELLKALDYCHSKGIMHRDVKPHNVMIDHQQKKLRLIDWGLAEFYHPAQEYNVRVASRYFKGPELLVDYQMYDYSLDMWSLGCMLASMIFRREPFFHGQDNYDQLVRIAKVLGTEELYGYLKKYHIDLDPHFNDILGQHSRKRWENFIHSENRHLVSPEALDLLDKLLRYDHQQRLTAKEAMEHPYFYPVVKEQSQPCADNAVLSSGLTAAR

[15] = target: T14, AURKA (Homo sapiens, UniProt O14965); assay: KinomeScan; format: binding; conditions: read-out: % control
T14 construct: purchased DiscoveRx KINOMEscan
T14 sequence (O14965 whole entry): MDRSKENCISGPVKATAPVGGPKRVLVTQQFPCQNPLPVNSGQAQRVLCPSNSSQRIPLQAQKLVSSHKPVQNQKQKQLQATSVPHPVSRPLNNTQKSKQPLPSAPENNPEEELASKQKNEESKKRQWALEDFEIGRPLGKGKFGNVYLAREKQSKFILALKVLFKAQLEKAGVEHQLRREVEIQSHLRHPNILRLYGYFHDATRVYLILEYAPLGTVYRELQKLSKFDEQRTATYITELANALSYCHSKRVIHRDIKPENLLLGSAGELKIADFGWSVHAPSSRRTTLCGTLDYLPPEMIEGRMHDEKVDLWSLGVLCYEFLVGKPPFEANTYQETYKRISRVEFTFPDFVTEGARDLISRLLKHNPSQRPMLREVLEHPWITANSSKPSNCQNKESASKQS

[16] = target: T15, ANKK1 (Homo sapiens, UniProt Q8NFD2); assay: KinomeScan; format: binding; conditions: read-out: % control
T15 construct: purchased DiscoveRx KINOMEscan

[17] = target: T16, ROCK2 (Homo sapiens, UniProt O75116); assay: KinomeScan; format: binding; conditions: read-out: % control
T16 construct: purchased DiscoveRx KINOMEscan

[18] = target: T17, SRPK3 (Homo sapiens, UniProt Q9UPE1); assay: KinomeScan; format: binding; conditions: read-out: % control
T17 construct: purchased DiscoveRx KINOMEscan

[19] = target: T18, ACVR1B (Homo sapiens, UniProt P36896); assay: KinomeScan; format: binding; conditions: read-out: % control
T18 construct: purchased DiscoveRx KINOMEscan
T18 sequence (P36896 24-505): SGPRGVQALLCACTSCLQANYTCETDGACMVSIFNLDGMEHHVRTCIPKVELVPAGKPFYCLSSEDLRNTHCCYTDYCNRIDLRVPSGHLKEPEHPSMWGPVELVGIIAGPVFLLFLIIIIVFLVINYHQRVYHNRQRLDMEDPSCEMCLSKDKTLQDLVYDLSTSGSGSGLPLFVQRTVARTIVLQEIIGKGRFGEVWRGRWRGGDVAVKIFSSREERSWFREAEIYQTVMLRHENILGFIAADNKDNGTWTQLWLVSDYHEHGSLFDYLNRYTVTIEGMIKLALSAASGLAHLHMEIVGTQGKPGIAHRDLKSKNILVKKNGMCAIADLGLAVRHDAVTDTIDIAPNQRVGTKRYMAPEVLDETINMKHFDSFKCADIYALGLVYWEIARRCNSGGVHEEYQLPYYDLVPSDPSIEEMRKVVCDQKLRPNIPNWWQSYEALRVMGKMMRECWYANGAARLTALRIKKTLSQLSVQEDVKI

[20] = target: T19, HIPK3 (Homo sapiens, UniProt Q9H422); assay: KinomeScan; format: binding; conditions: read-out: % control
T19 construct: purchased DiscoveRx KINOMEscan

[21] = target: T20, PAK1 (Homo sapiens, UniProt Q13153); assay: KinomeScan; format: binding; conditions: read-out: % control
T20 construct: purchased DiscoveRx KINOMEscan

[22] = target: T21, WEE2 (Homo sapiens, UniProt P0C1S8); assay: KinomeScan; format: binding; conditions: read-out: % control
T21 construct: purchased DiscoveRx KINOMEscan

[23] = target: T22, EPHB6 (Homo sapiens, UniProt O15197); assay: KinomeScan; format: binding; conditions: read-out: % control
T22 construct: purchased DiscoveRx KINOMEscan

[24] = target: T23, NEK4 (Homo sapiens, UniProt P51957); assay: KinomeScan; format: binding; conditions: read-out: % control
T23 construct: purchased DiscoveRx KINOMEscan
T23 sequence (P51957 whole entry): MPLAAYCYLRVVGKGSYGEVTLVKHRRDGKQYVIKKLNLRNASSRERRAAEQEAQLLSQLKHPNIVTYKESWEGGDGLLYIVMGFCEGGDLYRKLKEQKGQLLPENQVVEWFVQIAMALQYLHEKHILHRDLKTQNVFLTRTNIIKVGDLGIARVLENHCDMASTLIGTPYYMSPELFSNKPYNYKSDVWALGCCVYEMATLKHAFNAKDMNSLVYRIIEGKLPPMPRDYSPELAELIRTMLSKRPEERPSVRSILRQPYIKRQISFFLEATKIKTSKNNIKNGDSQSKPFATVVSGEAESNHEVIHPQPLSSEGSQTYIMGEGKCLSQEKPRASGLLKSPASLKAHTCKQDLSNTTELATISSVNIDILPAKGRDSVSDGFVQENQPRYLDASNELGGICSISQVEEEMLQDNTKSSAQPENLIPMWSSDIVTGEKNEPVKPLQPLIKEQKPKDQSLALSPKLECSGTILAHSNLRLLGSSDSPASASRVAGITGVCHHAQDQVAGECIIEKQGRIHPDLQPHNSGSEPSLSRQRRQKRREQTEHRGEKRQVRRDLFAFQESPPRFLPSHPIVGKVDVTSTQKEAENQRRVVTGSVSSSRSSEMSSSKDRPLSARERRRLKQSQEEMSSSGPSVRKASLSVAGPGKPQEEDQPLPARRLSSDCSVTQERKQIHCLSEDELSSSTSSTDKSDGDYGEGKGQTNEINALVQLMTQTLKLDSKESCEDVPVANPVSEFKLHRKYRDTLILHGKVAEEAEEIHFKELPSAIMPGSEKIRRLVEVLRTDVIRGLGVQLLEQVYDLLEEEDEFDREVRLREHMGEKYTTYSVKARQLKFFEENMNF

[25] = target: T24, FLT1 (Homo sapiens, UniProt P17948); assay: KinomeScan; format: binding; conditions: read-out: % control
T24 construct: purchased DiscoveRx KINOMEscan

[26] = target: T25, ITK (Homo sapiens, UniProt Q08881); assay: KinomeScan; format: binding; conditions: read-out: % control
T25 construct: purchased DiscoveRx KINOMEscan
T25 sequence (Q08881 whole entry): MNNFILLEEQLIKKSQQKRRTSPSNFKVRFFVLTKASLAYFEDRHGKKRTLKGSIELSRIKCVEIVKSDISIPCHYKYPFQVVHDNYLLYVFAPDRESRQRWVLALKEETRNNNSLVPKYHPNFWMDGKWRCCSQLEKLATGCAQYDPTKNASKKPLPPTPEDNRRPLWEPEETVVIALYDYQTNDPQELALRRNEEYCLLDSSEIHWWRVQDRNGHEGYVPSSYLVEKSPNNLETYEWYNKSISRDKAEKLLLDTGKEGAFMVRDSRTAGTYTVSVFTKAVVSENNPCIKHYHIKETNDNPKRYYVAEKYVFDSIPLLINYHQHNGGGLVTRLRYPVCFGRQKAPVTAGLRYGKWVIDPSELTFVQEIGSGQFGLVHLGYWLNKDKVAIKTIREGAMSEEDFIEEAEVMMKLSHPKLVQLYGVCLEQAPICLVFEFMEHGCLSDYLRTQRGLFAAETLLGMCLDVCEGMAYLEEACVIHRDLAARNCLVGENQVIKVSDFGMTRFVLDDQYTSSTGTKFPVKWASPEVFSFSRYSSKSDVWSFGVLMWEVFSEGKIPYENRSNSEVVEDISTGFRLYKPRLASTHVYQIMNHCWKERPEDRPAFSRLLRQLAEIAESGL

[27] = target: T26, BRK (Homo sapiens, UniProt Q13882); assay: KinomeScan; format: binding; conditions: read-out: % control
T26 construct: purchased DiscoveRx KINOMEscan

[28] = target: T27, PIK3CA(E545K) (Homo sapiens, UniProt P42336, E545K); assay: KinomeScan; format: binding; conditions: read-out: % control
T27 construct: purchased DiscoveRx KINOMEscan

[29] = target: T28, RPS6KA5(Kin.Dom.1-N-terminal) (Homo sapiens, UniProt O75582); assay: KinomeScan; format: binding; conditions: read-out: % control
T28 construct: RPS6KA5(Kin.Dom.1-N-terminal); purchased DiscoveRx KINOMEscan

[30] = target: T29, AKT3 (Homo sapiens, UniProt Q9Y243); assay: KinomeScan; format: binding; conditions: read-out: % control
T29 construct: purchased DiscoveRx KINOMEscan
T29 sequence (Q9Y243 whole entry): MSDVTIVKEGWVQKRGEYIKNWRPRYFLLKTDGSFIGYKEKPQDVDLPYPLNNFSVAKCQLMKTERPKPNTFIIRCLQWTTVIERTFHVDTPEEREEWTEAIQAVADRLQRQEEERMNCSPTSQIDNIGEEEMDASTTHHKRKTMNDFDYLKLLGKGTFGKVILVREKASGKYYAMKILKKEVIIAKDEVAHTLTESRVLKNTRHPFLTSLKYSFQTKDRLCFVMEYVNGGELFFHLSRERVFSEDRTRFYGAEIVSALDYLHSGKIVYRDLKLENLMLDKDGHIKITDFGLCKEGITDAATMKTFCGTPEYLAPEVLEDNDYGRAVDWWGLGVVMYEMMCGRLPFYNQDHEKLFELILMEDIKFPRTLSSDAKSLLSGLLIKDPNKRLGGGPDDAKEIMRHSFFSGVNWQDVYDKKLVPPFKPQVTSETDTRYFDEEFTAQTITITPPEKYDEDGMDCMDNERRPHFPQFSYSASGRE

[31] = target: T30, FYN (Homo sapiens, UniProt P06241); assay: KinomeScan; format: binding; conditions: read-out: % control
T30 construct: purchased DiscoveRx KINOMEscan

[32] = target: T31, TIE1 (Homo sapiens, UniProt P35590); assay: KinomeScan; format: binding; conditions: read-out: % control
T31 construct: purchased DiscoveRx KINOMEscan
T31 sequence (P35590 22-1138): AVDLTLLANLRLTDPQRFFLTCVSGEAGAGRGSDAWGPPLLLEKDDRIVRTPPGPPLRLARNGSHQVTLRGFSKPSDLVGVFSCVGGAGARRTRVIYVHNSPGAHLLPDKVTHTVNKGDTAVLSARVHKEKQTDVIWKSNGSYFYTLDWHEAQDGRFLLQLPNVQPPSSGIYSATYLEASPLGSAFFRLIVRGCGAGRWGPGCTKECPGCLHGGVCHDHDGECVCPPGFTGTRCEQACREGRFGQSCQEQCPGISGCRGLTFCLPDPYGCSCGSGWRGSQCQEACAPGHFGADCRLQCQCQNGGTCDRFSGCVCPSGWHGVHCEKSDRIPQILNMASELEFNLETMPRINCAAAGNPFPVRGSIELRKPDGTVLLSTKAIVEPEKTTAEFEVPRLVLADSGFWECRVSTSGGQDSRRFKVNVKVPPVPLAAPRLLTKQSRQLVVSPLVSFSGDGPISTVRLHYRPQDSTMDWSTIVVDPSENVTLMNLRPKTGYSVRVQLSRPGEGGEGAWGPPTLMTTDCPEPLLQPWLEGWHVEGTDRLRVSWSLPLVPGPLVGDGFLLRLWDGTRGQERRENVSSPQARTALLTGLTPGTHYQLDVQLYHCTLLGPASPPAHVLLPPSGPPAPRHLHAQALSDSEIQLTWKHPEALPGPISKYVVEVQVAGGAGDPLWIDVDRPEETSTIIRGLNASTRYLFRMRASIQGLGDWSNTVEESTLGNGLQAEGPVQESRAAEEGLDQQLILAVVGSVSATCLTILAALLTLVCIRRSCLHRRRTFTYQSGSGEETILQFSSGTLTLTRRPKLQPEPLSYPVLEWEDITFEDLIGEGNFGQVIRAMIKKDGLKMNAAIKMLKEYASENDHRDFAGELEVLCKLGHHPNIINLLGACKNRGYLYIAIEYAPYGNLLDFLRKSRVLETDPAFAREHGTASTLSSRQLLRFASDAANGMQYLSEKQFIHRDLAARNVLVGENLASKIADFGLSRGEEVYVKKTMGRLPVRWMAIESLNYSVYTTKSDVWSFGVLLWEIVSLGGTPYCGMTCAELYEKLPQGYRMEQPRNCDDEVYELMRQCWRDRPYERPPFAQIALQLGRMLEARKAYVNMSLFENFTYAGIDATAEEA

[33] = target: T32, NEK2 (Homo sapiens, UniProt P51955); assay: KinomeScan; format: binding; conditions: read-out: % control
T32 construct: purchased DiscoveRx KINOMEscan

[34] = target: T33, CAMK1B (Homo sapiens, UniProt Q6P2M8); assay: KinomeScan; format: binding; conditions: read-out: % control
T33 construct: purchased DiscoveRx KINOMEscan

[35] = target: T34, LYN (Homo sapiens, UniProt P07948); assay: KinomeScan; format: binding; conditions: read-out: % control
T34 construct: purchased DiscoveRx KINOMEscan

[36] = target: T35, JAK2(JH1domain-catalytic) (Homo sapiens, UniProt O60674); assay: KinomeScan; format: binding; conditions: read-out: % control
T35 construct: JAK2(JH1domain-catalytic); purchased DiscoveRx KINOMEscan

[37] = target: T36, RSK4(Kin.Dom.2-C-terminal) (Homo sapiens, UniProt Q9UK32); assay: KinomeScan; format: binding; conditions: read-out: % control
T36 construct: RSK4(Kin.Dom.2-C-terminal); purchased DiscoveRx KINOMEscan

[38] = tested on: EGFR Y1068 phosphorylation in BaF3-TEL-EGFR cells; assay: EGFR Y1068 auto-phosphorylation in transformed BaF3 cells; conditions: Mus musculus, BaF3, 4 h, read-out: EC50, phosphorylation of EGFR Y1068

C=CC(=O)N1CCC[C@@H](n2nc(-c3ccc(OCc4cccc(C)n4)c(Cl)c3)c3c(N)ncnc32)C1 [CHMFL-EGFR-26]
remaining binding at 1 µM [1]: 25%
remaining binding at 1 µM [2]: 98%
remaining binding at 1 µM [3]: 100%
remaining binding at 1 µM [4]: 100%
remaining binding at 1 µM [5]: 100%
remaining binding at 1 µM [6]: 70%
remaining binding at 1 µM [7]: 91%
remaining binding at 1 µM [8]: 100%
remaining binding at 1 µM [9]: 99%
remaining binding at 1 µM [10]: 67%
remaining binding at 1 µM [11]: 81%
remaining binding at 1 µM [12]: 92%
S score (1) [13]: 0.02
remaining binding at 1 µM [14]: 91%
remaining binding at 1 µM [15]: 97%
remaining binding at 1 µM [16]: 94%
remaining binding at 1 µM [17]: 100%
remaining binding at 1 µM [18]: 90%
remaining binding at 1 µM [19]: 30%
remaining binding at 1 µM [20]: 100%
remaining binding at 1 µM [21]: 59%
remaining binding at 1 µM [22]: 84%
remaining binding at 1 µM [23]: 82%
remaining binding at 1 µM [24]: 100%
remaining binding at 1 µM [25]: 93%
remaining binding at 1 µM [26]: 96%
remaining binding at 1 µM [27]: 26%
remaining binding at 1 µM [28]: 81%
remaining binding at 1 µM [29]: 100%
remaining binding at 1 µM [30]: 59%
remaining binding at 1 µM [31]: 90%
remaining binding at 1 µM [32]: 69%
remaining binding at 1 µM [33]: 18%
remaining binding at 1 µM [34]: 82%
remaining binding at 1 µM [35]: 94%
remaining binding at 1 µM [36]: 95%
remaining binding at 1 µM [37]: 72%
EC50 [38]: 0.05 µM
